# From ChEMBL document CHEMBL1201862, “PubChem BioAssay data set” (2004)
#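 96-well plates; 48 h exposure; 5 concentrations. Endpoints by linear interpolation between flanking doses. Not reached: highest tested concentration assigned. Here, GI50 denotes the concentration required for 50% inhibition of growth.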 Activity calls are given as the source filed them. No stated cut-off is given here; in the data, active = GI50 up to about 1.1 µM and inactive = higher.
# How the values were obtained:
# Assay in all cases: NCI-60 cell line screen, 48 h
# HCT-116 = tested on: HCT-116
# SK-MEL-5 = tested on: SK-MEL-5
# NCI-H460 = tested on: NCI-H460
# NCI-H522 = tested on: NCI-H522
# NCI/ADR-RES = tested on: NCI/ADR-RES
# BT-549 = tested on: BT-549
# CCRF-CEM = tested on: CCRF-CEM
# T47D = tested on: T47D
# SNB-75 = tested on: SNB-75
# LOX IMVI = tested on: LOX IMVI
# OVCAR-5 = tested on: OVCAR-5
# SF-295 = tested on: SF-295
# IGROV-1 = tested on: IGROV-1
# NCI-H226 = tested on: NCI-H226
# UACC-257 = tested on: UACC-257
# UO-31 = tested on: UO-31
# 786-0 = tested on: 786-0
# Malme-3M = tested on: Malme-3M
# MDA-MB-231 = tested on: MDA-MB-231
# SN12C = tested on: SN12C
# Hs-578T = tested on: Hs-578T
# MCF7 = tested on: MCF7
# ACHN = tested on: ACHN
# RXF 393 = tested on: RXF 393
# SW-620 = tested on: SW-620
# M14 = tested on: M14
# HOP-92 = tested on: HOP-92
# COLO 205 = tested on: COLO 205
# A549 = tested on: A549
# UACC-62 = tested on: UACC-62
# NCI-H23 = tested on: NCI-H23
# A498 = tested on: A498
# SF-539 = tested on: SF-539
# PC-3 = tested on: PC-3
# KM12 = tested on: KM12
# HT-29 = tested on: HT-29
# MDA-MB-435 = tested on: MDA-MB-435
# SR = tested on: SR
# SNB-19 = tested on: SNB-19
# SK-OV-3 = tested on: SK-OV-3
# SF-268 = tested on: SF-268
# SK-MEL-28 = tested on: SK-MEL-28
# RPMI-8226 = tested on: RPMI-8226
# HOP-62 = tested on: HOP-62
# HL-60 = tested on: HL-60
# K562 = tested on: K562
# HCT-15 = tested on: HCT-15
# TK-10 = tested on: TK-10
# U-251 = tested on: U-251
# OVCAR-8 = tested on: OVCAR-8
# MOLT-4 = tested on: MOLT-4
# CAKI-1 = tested on: CAKI-1
# SK-MEL-2 = tested on: SK-MEL-2
# EKVX = tested on: EKVX
# MDA-N = tested on: MDA-N
# OVCAR-4 = tested on: OVCAR-4
# OVCAR-3 = tested on: OVCAR-3
# DU-145 = tested on: DU-145
# HCC 2998 = tested on: HCC 2998
structure (smiles),measurement,setting,value
CCOC(=O)c1ccc2nc(-c3ccc(S(=O)(=O)F)cc3)cc(O)c2c1,GI50,HCT-116,23.1 µM (inactive)
same,GI50,SK-MEL-5,50.2 µM (inactive)
same,GI50,NCI-H460,34.4 µM (inactive)
same,GI50,NCI-H522,15.8 µM (inactive)
same,GI50,NCI/ADR-RES,> 100 µM (inactive)
same,GI50,BT-549,37.8 µM (inactive)
same,GI50,CCRF-CEM,30.7 µM (inactive)
same,GI50,T47D,25.1 µM (inactive)
same,GI50,SNB-75,25.2 µM (inactive)
same,GI50,LOX IMVI,36.5 µM (inactive)
same,GI50,OVCAR-5,> 100 µM (inactive)
same,GI50,SF-295,39.8 µM (inactive)
same,GI50,IGROV-1,48.8 µM (inactive)
same,GI50,NCI-H226,> 100 µM (inactive)
same,GI50,UACC-257,51.8 µM (inactive)
same,GI50,UO-31,71 µM (inactive)
same,GI50,786-0,36.4 µM (inactive)
same,GI50,Malme-3M,25.1 µM (inactive)
same,GI50,MDA-MB-231,36.3 µM (inactive)
same,GI50,SN12C,43.9 µM (inactive)
same,GI50,Hs-578T,54.8 µM (inactive)
same,GI50,MCF7,30.1 µM (inactive)
same,GI50,ACHN,24.2 µM (inactive)
same,GI50,RXF 393,31.9 µM (inactive)
same,GI50,SW-620,76.7 µM (inactive)
same,GI50,M14,40.9 µM (inactive)
same,GI50,HOP-92,> 100 µM (inactive)
same,GI50,COLO 205,58.9 µM (inactive)
same,GI50,A549,53.3 µM (inactive)
same,GI50,UACC-62,24 µM (inactive)
same,GI50,NCI-H23,21.6 µM (inactive)
same,GI50,A498,14.8 µM (inactive)
same,GI50,SF-539,56.5 µM (inactive)
same,GI50,PC-3,50.6 µM (inactive)
same,GI50,KM12,29.8 µM (inactive)
same,GI50,HT-29,62.1 µM (inactive)
same,GI50,MDA-MB-435,40.9 µM (inactive)
same,GI50,SR,35.5 µM (inactive)
same,GI50,SNB-19,> 100 µM (inactive)
same,GI50,SK-OV-3,38.9 µM (inactive)
same,GI50,SF-268,60.8 µM (inactive)
same,GI50,SK-MEL-28,59.6 µM (inactive)
same,GI50,RPMI-8226,45.9 µM (inactive)
same,GI50,HOP-62,32.5 µM (inactive)
same,GI50,HL-60,26.7 µM (inactive)
same,GI50,K562,42.8 µM (inactive)
same,GI50,HCT-15,31.6 µM
same,GI50,TK-10,27.7 µM (inactive)
same,GI50,U-251,34.9 µM (inactive)
same,GI50,OVCAR-8,61.2 µM (inactive)
same,GI50,MOLT-4,36.8 µM (inactive)
same,GI50,CAKI-1,39.9 µM (inactive)
same,GI50,SK-MEL-2,27.5 µM (inactive)
same,GI50,EKVX,> 100 µM (inactive)
same,GI50,MDA-N,33.5 µM (inactive)
same,GI50,OVCAR-4,65.3 µM (inactive)
same,GI50,OVCAR-3,19.6 µM (inactive)
same,GI50,DU-145,48.9 µM (inactive)
same,GI50,HCC 2998,14.5 µM (inactive)
CC(C)=CCC[C@@H](C)C1=C(O)C(=O)C(C)=C(Nc2ccccc2Cl)C1=O,GI50,HCT-116,15 µM (inactive)
same,GI50,SK-MEL-5,16.8 µM (inactive)
same,GI50,NCI-H460,14.1 µM (inactive)
same,GI50,NCI-H522,6.25 µM (inactive)
same,GI50,NCI/ADR-RES,1.82 µM (inactive)
same,GI50,BT-549,32.4 µM (inactive)
same,GI50,CCRF-CEM,4.41 µM (inactive)
same,GI50,T47D,12.6 µM (inactive)
same,GI50,SNB-75,8.75 µM (inactive)
same,GI50,LOX IMVI,8.57 µM (inactive)
same,GI50,OVCAR-5,45.7 µM (inactive)
same,GI50,SF-295,6.71 µM (inactive)
same,GI50,IGROV-1,5.81 µM (inactive)
same,GI50,NCI-H226,13.1 µM (inactive)
same,GI50,UACC-257,25.9 µM (inactive)
same,GI50,UO-31,12.4 µM (inactive)
same,GI50,786-0,12.9 µM (inactive)
same,GI50,Malme-3M,11.3 µM (inactive)
same,GI50,MDA-MB-231,40.4 µM (inactive)
same,GI50,SN12C,25.1 µM (inactive)
same,GI50,Hs-578T,21.7 µM (inactive)
same,GI50,MCF7,24.4 µM (inactive)
same,GI50,ACHN,19.1 µM (inactive)
same,GI50,RXF 393,22.3 µM (inactive)
same,GI50,SW-620,27 µM (inactive)
same,GI50,M14,21.4 µM (inactive)
same,GI50,HOP-92,27.8 µM (inactive)
same,GI50,COLO 205,14.2 µM (inactive)
same,GI50,A549,19 µM (inactive)
same,GI50,UACC-62,12.2 µM (inactive)
same,GI50,NCI-H23,12.5 µM (inactive)
same,GI50,A498,17.5 µM (inactive)
same,GI50,SF-539,9.31 µM (inactive)
same,GI50,PC-3,18.5 µM (inactive)
same,GI50,KM12,10.8 µM (inactive)
same,GI50,HT-29,13 µM (inactive)
same,GI50,MDA-MB-435,23.9 µM (inactive)
same,GI50,SR,11.5 µM (inactive)
same,GI50,SNB-19,30.7 µM (inactive)
same,GI50,SK-OV-3,27.1 µM (inactive)
same,GI50,SF-268,16 µM (inactive)
same,GI50,SK-MEL-28,26.5 µM (inactive)
same,GI50,RPMI-8226,25.9 µM (inactive)
same,GI50,HOP-62,11.6 µM (inactive)
same,GI50,HL-60,1.22 µM (inactive)
same,GI50,K562,36 µM (inactive)
same,GI50,HCT-15,7.26 µM
same,GI50,TK-10,33.7 µM (inactive)
same,GI50,U-251,16.3 µM (inactive)
same,GI50,OVCAR-8,4.71 µM (inactive)
same,GI50,MOLT-4,5 µM (inactive)
same,GI50,CAKI-1,16 µM (inactive)
same,GI50,SK-MEL-2,15.5 µM (inactive)
same,GI50,EKVX,19 µM (inactive)
same,GI50,MDA-N,21.5 µM (inactive)
same,GI50,OVCAR-4,11.2 µM (inactive)
same,GI50,OVCAR-3,10.8 µM (inactive)
same,GI50,DU-145,36.2 µM (inactive)
same,GI50,HCC 2998,20.6 µM (inactive)
